Test results from ChEMBL document CHEMBL3046329, “Sensitivity to silthiofam, tebuconazole and difenoconazole of Gaeumannomyces graminis var. tritici isolates from China” (Pest Manag Sci, 2012).
Values after ≈ are worked out from the molar mass of the structure shown.

Columns and labels:
[1] = system: Gaeumannomyces tritici; assay: Antifungal activity against sithiofam-resistant Gaeumannomyces graminis var. tritici isolate JS06 expressing C1 genetic cluster assessed as reduction in fungal colony diameter after 4 days; format: functional, organism-based; conditions: isolate JS06, 96 h
[2] = system: Gaeumannomyces tritici; assay: Antifungal activity against sithiofam-resistant Gaeumannomyces graminis var. tritici isolate JS04 expressing C1 genetic cluster assessed as reduction in fungal colony diameter after 4 days; format: functional, organism-based; conditions: isolate JS04, 96 h
[3] = system: Gaeumannomyces tritici; assay: Antifungal activity against sithiofam-sensitive Gaeumannomyces graminis var. tritici isolate JS03 expressing C1 genetic cluster assessed as reduction in fungal colony diameter after 4 days; format: functional, organism-based; conditions: isolate JS03, 96 h
[4] = system: Gaeumannomyces tritici; assay: Antifungal activity against sithiofam-resistant Gaeumannomyces graminis var. tritici isolate JS12 expressing C1 genetic cluster assessed as reduction in fungal colony diameter after 4 days; format: functional, organism-based; conditions: isolate JS12, 96 h
[5] = system: Gaeumannomyces tritici; assay: Antifungal activity against sithiofam-sensitive Gaeumannomyces graminis var. tritici isolate JS10 expressing C2 genetic cluster assessed as reduction in fungal colony diameter after 4 days; format: functional, organism-based; conditions: isolate JS10, 96 h
[6] = system: Gaeumannomyces tritici; assay: Antifungal activity against sithiofam-sensitive Gaeumannomyces graminis var. tritici isolate HN29 expressing C2 genetic cluster assessed as reduction in fungal colony diameter after 4 days; format: functional, organism-based; conditions: isolate HN29, 96 h
[7] = system: Gaeumannomyces tritici; assay: Antifungal activity against sithiofam-sensitive Gaeumannomyces graminis var. tritici isolate HN28 expressing C2 genetic cluster assessed as reduction in fungal colony diameter after 4 days; format: functional, organism-based; conditions: isolate HN28, 96 h
[8] = system: Gaeumannomyces tritici; assay: Antifungal activity against sithiofam-resistant Gaeumannomyces graminis var. tritici isolate HN27 expressing […] genetic cluster assessed as reduction in fungal colony diameter after 4 days; format: functional, organism-based; conditions: isolate HN27, 96 h
[9] = system: Gaeumannomyces tritici; assay: Antifungal activity against sithiofam-sensitive Gaeumannomyces graminis var. tritici isolate HN25 expressing C2 genetic cluster assessed as reduction in fungal colony diameter after 4 days; format: functional, organism-based; conditions: isolate HN25, 96 h
[10] = system: Gaeumannomyces tritici; assay: Antifungal activity against sithiofam-sensitive Gaeumannomyces graminis var. tritici isolate HN24 expressing C2 genetic cluster assessed as reduction in fungal colony diameter after 4 days; format: functional, organism-based; conditions: isolate HN24, 96 h
[11] = system: Gaeumannomyces tritici; assay: Antifungal activity against sithiofam-sensitive Gaeumannomyces graminis var. tritici isolate HN23 expressing C2 genetic cluster assessed as reduction in fungal colony diameter after 4 days; format: functional, organism-based; conditions: isolate HN23, 96 h
[12] = system: Gaeumannomyces tritici; assay: Antifungal activity against sithiofam-sensitive Gaeumannomyces graminis var. tritici isolate HN22 expressing C2 genetic cluster assessed as reduction in fungal colony diameter after 4 days; format: functional, organism-based; conditions: isolate HN22, 96 h
[13] = system: Gaeumannomyces tritici; assay: Antifungal activity against sithiofam-sensitive Gaeumannomyces graminis var. tritici isolate HN14 expressing C2 genetic cluster assessed as reduction in fungal colony diameter after 4 days; format: functional, organism-based; conditions: isolate HN14, 96 h
[14] = system: Gaeumannomyces tritici; assay: Antifungal activity against sithiofam-resistant Gaeumannomyces graminis var. tritici isolate HN09 expressing C1 genetic cluster assessed as reduction in fungal colony diameter after 4 days; format: functional, organism-based; conditions: isolate HN09, 96 h
[15] = system: Gaeumannomyces tritici; assay: Antifungal activity against sithiofam-resistant Gaeumannomyces graminis var. tritici isolate HN08 expressing C1 genetic cluster assessed as reduction in fungal colony diameter after 4 days; format: functional, organism-based; conditions: isolate HN08, 96 h
[16] = system: Gaeumannomyces tritici; assay: Antifungal activity against sithiofam-resistant Gaeumannomyces graminis var. tritici isolate HN07 expressing C1 genetic cluster assessed as reduction in fungal colony diameter after 4 days; format: functional, organism-based; conditions: isolate HN07, 96 h
[17] = system: Gaeumannomyces tritici; assay: Antifungal activity against sithiofam-resistant Gaeumannomyces graminis var. tritici isolate HN06 expressing C1 genetic cluster assessed as reduction in fungal colony diameter after 4 days; format: functional, organism-based; conditions: isolate HN06, 96 h
[18] = system: Gaeumannomyces tritici; assay: Antifungal activity against sithiofam-resistant Gaeumannomyces graminis var. tritici isolate HN03 expressing C1 genetic cluster assessed as reduction in fungal colony diameter after 4 days; format: functional, organism-based; conditions: isolate HN03, 96 h
[19] = system: Gaeumannomyces tritici; assay: Antifungal activity against sithiofam-sensitive Gaeumannomyces graminis var. tritici isolate AH09 expressing C2 genetic cluster assessed as reduction in fungal colony diameter after 4 days; format: functional, organism-based; conditions: isolate AH09, 96 h
[20] = system: Gaeumannomyces tritici; assay: Antifungal activity against sithiofam-sensitive Gaeumannomyces graminis var. tritici isolate AH15 expressing C2 genetic cluster assessed as reduction in fungal colony diameter after 4 days; format: functional, organism-based; conditions: isolate AH15, 96 h
[21] = system: Gaeumannomyces tritici; assay: Antifungal activity against sithiofam-resistant Gaeumannomyces graminis var. tritici isolate AH06 expressing C1 genetic cluster assessed as reduction in fungal colony diameter after 4 days; format: functional, organism-based; conditions: isolate AH06, 96 h
[22] = system: Gaeumannomyces tritici; assay: Antifungal activity against sithiofam-sensitive Gaeumannomyces graminis var. tritici isolate AH04 expressing C2 genetic cluster assessed as reduction in fungal colony diameter after 4 days; format: functional, organism-based; conditions: isolate AH04, 96 h
[23] = system: Gaeumannomyces tritici; assay: Antifungal activity against sithiofam-sensitive Gaeumannomyces graminis var. tritici isolate AH03 expressing C2 genetic cluster assessed as reduction in fungal colony diameter after 4 days; format: functional, organism-based; conditions: isolate AH03, 96 h
[24] = system: Gaeumannomyces tritici; assay: Antifungal activity against sithiofam-sensitive Gaeumannomyces graminis var. tritici isolate AH01 expressing C2 genetic cluster assessed as reduction in fungal colony diameter after 4 days; format: functional, organism-based; conditions: isolate AH01, 96 h
[25] = system: Gaeumannomyces tritici; assay: Antifungal activity against sithiofam-sensitive Gaeumannomyces graminis var. tritici isolate SD04 expressing C2 genetic cluster assessed as reduction in fungal colony diameter after 4 days; format: functional, organism-based; conditions: isolate SD04, 96 h
[26] = system: Gaeumannomyces tritici; assay: Antifungal activity against sithiofam-sensitive Gaeumannomyces graminis var. tritici isolate AH12 expressing C2 genetic cluster assessed as reduction in fungal colony diameter after 4 days; format: functional, organism-based; conditions: isolate AH12, 96 h
[27] = system: Gaeumannomyces tritici; assay: Antifungal activity against sithiofam-sensitive Gaeumannomyces graminis var. tritici isolate AH11 expressing C2 genetic cluster assessed as reduction in fungal colony diameter after 4 days; format: functional, organism-based; conditions: isolate AH11, 96 h
[28] = system: Gaeumannomyces tritici; assay: Antifungal activity against sithiofam-sensitive Gaeumannomyces graminis var. tritici isolate HN31 expressing C3 genetic cluster assessed as reduction in fungal colony diameter after 4 days; format: functional, organism-based; conditions: isolate HN31, 96 h
[29] = system: Gaeumannomyces tritici; assay: Antifungal activity against sithiofam-sensitive Gaeumannomyces graminis var. tritici isolate HN30 expressing C2 genetic cluster assessed as reduction in fungal colony diameter after 4 days; format: functional, organism-based; conditions: isolate HN30, 96 h
[30] = system: Gaeumannomyces tritici; assay: (§1) Antifungal activity against sithiofam-sensitive Gaeumannomyces graminis var. tritici isolate SD05 expressing C2 genetic cluster assessed as fungal induced root necrosis administered to wheat cultivar Huaimai 30 seeds grown on fungal infested soils at 0.25 g ai/kg measured after 10 days (reference value: 27.71%); format: functional
[31] = system: Gaeumannomyces tritici; assay: as §1, with “SD04” for “SD05”, “27.34%)” for “27.71%)”; format: functional
[32] = system: Gaeumannomyces tritici; assay: as §1, with “sithiofam-resistant” for “sithiofam-sensitive”, “AH14” for “SD05”, “C1” for “C2”, “28.16%)” for “27.71%)”; format: functional
[33] = system: Gaeumannomyces tritici; assay: as §1, with “sithiofam-resistant” for “sithiofam-sensitive”, “AH02” for “SD05”, “C1” for “C2”, “28.16%)” for “27.71%)”; format: functional

Compound | EC50 [1] [µg/mL] | EC50 [2] [µg/mL] | EC50 [3] [µg/mL] | EC50 [4] [µg/mL] | EC50 [5] [µg/mL] | EC50 [6] [µg/mL] | EC50 [7] [µg/mL] | EC50 [8] [µg/mL] | EC50 [9] [µg/mL] | EC50 [10] [µg/mL] | EC50 [11] [µg/mL] | EC50 [12] [µg/mL] | EC50 [13] [µg/mL] | EC50 [14] [µg/mL] | EC50 [15] [µg/mL] | EC50 [16] [µg/mL] | EC50 [17] [µg/mL] | EC50 [18] [µg/mL] | EC50 [19] [µg/mL] | EC50 [20] [µg/mL] | further results
CC1COC(Cn2cncn2)(c2ccc(Oc3ccc(Cl)cc3)cc2Cl)O1 (stereo unspecified) [DIFENOCONAZOLE] | 0.223 (≈ 0.548 µM) | 0.198 (≈ 0.486 µM) | 0.121 (≈ 0.299 µM) | 0.116 (≈ 0.287 µM) | 0.313 (≈ 0.771 µM) | 0.107 (≈ 0.265 µM) | 0.0604 (≈ 0.149 µM) | 0.226 (≈ 0.557 µM) | 0.154 (≈ 0.38 µM) | 0.111 (≈ 0.274 µM) | 0.331 (≈ 0.816 µM) | 0.0553 (≈ 0.136 µM) | 0.0988 (≈ 0.243 µM) | 0.159 (≈ 0.392 µM) | 0.216 (≈ 0.533 µM) | 0.481 (≈ 1.18 µM) | 0.479 (≈ 1.18 µM) | 0.336 (≈ 0.827 µM) | 0.142 (≈ 0.349 µM) | 0.169 (≈ 0.415 µM) | EC50 [21]: 0.24 µg/mL (≈ 0.59 µM); EC50 [22]: 0.668 µg/mL (≈ 1.64 µM); EC50 [23]: 0.401 µg/mL (≈ 0.988 µM); EC50 [24]: 0.17 µg/mL (≈ 0.419 µM); EC50 [25]: 0.0923 µg/mL (≈ 0.227 µM); EC50 [26]: 0.154 µg/mL (≈ 0.38 µM); EC50 [27]: 0.129 µg/mL (≈ 0.317 µM); EC50 [28]: 0.283 µg/mL (≈ 0.697 µM); EC50 [29]: 0.102 µg/mL (≈ 0.251 µM)
C=CCNC(=O)c1c([Si](C)(C)C)sc(C)c1C [SILTHIOFAM] | 111 (≈ 417 µM) | 30.3 (≈ 113 µM) | 0.0016 (≈ 0.00598 µM) | 48.4 (≈ 181 µM) | 0.0009 (≈ 0.00336 µM) | 0.0002 (≈ 0.000748 µM) | 0.0005 (≈ 0.00187 µM) | 121 (≈ 451 µM) | 0.0011 (≈ 0.00411 µM) | 0.0003 (≈ 0.00112 µM) | 0.0009 (≈ 0.00336 µM) | 0.0024 (≈ 0.00897 µM) | 0.0009 (≈ 0.00336 µM) | 106 (≈ 398 µM) | 62.4 (≈ 233 µM) | 29.8 (≈ 112 µM) | 29.9 (≈ 112 µM) | 30 (≈ 112 µM) | 0.0003 (≈ 0.00112 µM) | 0.0005 (≈ 0.00187 µM) | Activity [30]: 3.19%; Activity [31]: 1.02%; Activity [32]: 28.42%; Activity [33]: 28%; EC50 [21]: 29.1 µg/mL (≈ 109 µM); EC50 [22]: 0.0012 µg/mL (≈ 0.00449 µM); EC50 [23]: 0.0003 µg/mL (≈ 0.00112 µM); EC50 [24]: 0.0011 µg/mL (≈ 0.00411 µM); EC50 [25]: 0.0002 µg/mL (≈ 0.000748 µM); EC50 [26]: 0.0006 µg/mL (≈ 0.00224 µM); EC50 [27]: 0.0004 µg/mL (≈ 0.0015 µM); EC50 [28]: 0.0004 µg/mL (≈ 0.0015 µM); EC50 [29]: 0.0014 µg/mL (≈ 0.00523 µM)
CC(C)(C)C(O)(CCc1ccc(Cl)cc1)Cn1cncn1 (stereo unspecified) [TEBUCONAZOLE] | 0.085 (≈ 0.276 µM) | 0.201 (≈ 0.652 µM) | 0.0742 (≈ 0.241 µM) | 0.0274 (≈ 0.089 µM) | 0.103 (≈ 0.334 µM) | 0.076 (≈ 0.247 µM) | 0.18 (≈ 0.584 µM) | 0.0536 (≈ 0.174 µM) | 0.086 (≈ 0.279 µM) | 0.0472 (≈ 0.153 µM) | 0.078 (≈ 0.253 µM) | 0.039 (≈ 0.127 µM) | 0.0479 (≈ 0.156 µM) | 0.0415 (≈ 0.135 µM) | 0.057 (≈ 0.185 µM) | 0.0513 (≈ 0.167 µM) | 0.0533 (≈ 0.173 µM) | 0.0724 (≈ 0.235 µM) | 0.0952 (≈ 0.309 µM) | 0.0263 (≈ 0.0854 µM) | EC50 [21]: 0.0283 µg/mL (≈ 0.0919 µM); EC50 [22]: 0.231 µg/mL (≈ 0.752 µM); EC50 [23]: 0.0622 µg/mL (≈ 0.202 µM); EC50 [24]: 0.0254 µg/mL (≈ 0.0825 µM); EC50 [25]: 0.127 µg/mL (≈ 0.412 µM); EC50 [26]: 0.0416 µg/mL (≈ 0.135 µM); EC50 [27]: 0.0395 µg/mL (≈ 0.128 µM); EC50 [28]: 0.111 µg/mL (≈ 0.362 µM); EC50 [29]: 0.123 µg/mL (≈ 0.401 µM)
